# Assay results reported in the NIST ThermoML archive (doi:10.1016/j.tca.2008.02.008).
# Numbers after ± are expanded uncertainties.
# Tests used:
# [1] = refractive index (Na D-line) (dimensionless); conditions: 298.15 K; 101.33 kPa; Liquid; refractometer
# [2] = 298.15 K; 101.33 kPa; Liquid; Vibrating tube method
# [3] = excess molar enthalpy (molar enthalpy of mixing); xn = mol fraction of the nth substance listed; conditions: 298.15 K, 101 kPa, Liquid, Flow calorimetry
compound,measurement,setting,value
"CC(Cl)CCl (stereo not given) [1,2-dichloropropane]",refractive index,[1],1.43653 ± 0.00023
same,mass density,[2],1148.95 ± 0.46 kg/m3
CCCCOCCOC(C)=O [2-butoxyethyl acetate],refractive index,[1],1.41183 ± 0.00023
same,mass density,[2],935.12 ± 0.3 kg/m3
CCCCOCCOC(C)=O [2-butoxyethyl acetate] + CC(Cl)CCl,excess molar enthalpy,[3]; x2 = 0.0659,-0.0943 ± 0.002 kJ/mol
same,excess molar enthalpy,[3]; x2 = 0.0985,-0.125 ± 0.0021 kJ/mol
same,excess molar enthalpy,[3]; x2 = 0.1611,-0.209 ± 0.0026 kJ/mol
same,excess molar enthalpy,[3]; x2 = 0.1911,-0.228 ± 0.0027 kJ/mol
same,excess molar enthalpy,[3]; x2 = 0.2486,-0.286 ± 0.0031 kJ/mol
same,excess molar enthalpy,[3]; x2 = 0.3032,-0.331 ± 0.0034 kJ/mol
same,excess molar enthalpy,[3]; x2 = 0.3549,-0.3678 ± 0.0036 kJ/mol
same,excess molar enthalpy,[3]; x2 = 0.4041,-0.3956 ± 0.0038 kJ/mol
same,excess molar enthalpy,[3]; x2 = 0.4509,-0.409 ± 0.0039 kJ/mol
same,excess molar enthalpy,[3]; x2 = 0.4955,-0.42 ± 0.004 kJ/mol
same,excess molar enthalpy,[3]; x2 = 0.5585,-0.4281 ± 0.0041 kJ/mol
same,excess molar enthalpy,[3]; x2 = 0.5982,-0.4247 ± 0.0041 kJ/mol
same,excess molar enthalpy,[3]; x2 = 0.6545,-0.4091 ± 0.0039 kJ/mol
same,excess molar enthalpy,[3]; x2 = 0.7073,-0.3824 ± 0.0037 kJ/mol
same,excess molar enthalpy,[3]; x2 = 0.7568,-0.348 ± 0.0035 kJ/mol
same,excess molar enthalpy,[3]; x2 = 0.8035,-0.304 ± 0.0032 kJ/mol
same,excess molar enthalpy,[3]; x2 = 0.8615,-0.238 ± 0.0028 kJ/mol
same,excess molar enthalpy,[3]; x2 = 0.9022,-0.18 ± 0.0024 kJ/mol
same,excess molar enthalpy,[3]; x2 = 0.9531,-0.0944 ± 0.002 kJ/mol
CCOCCOC(C)=O [2-ethoxyethyl ethanoate],refractive index,[1],1.40311 ± 0.00042
same,mass density,[2],967.36 ± 1 kg/m3
CCOCCOC(C)=O [2-ethoxyethyl ethanoate] + CC(Cl)CCl,excess molar enthalpy,[3]; x2 = 0.0532,-0.0732 ± 0.0019 kJ/mol
same,excess molar enthalpy,[3]; x2 = 0.1067,-0.127 ± 0.0021 kJ/mol
same,excess molar enthalpy,[3]; x2 = 0.1585,-0.199 ± 0.0025 kJ/mol
same,excess molar enthalpy,[3]; x2 = 0.2088,-0.248 ± 0.0028 kJ/mol
same,excess molar enthalpy,[3]; x2 = 0.2575,-0.29 ± 0.0031 kJ/mol
same,excess molar enthalpy,[3]; x2 = 0.3049,-0.323 ± 0.0033 kJ/mol
same,excess molar enthalpy,[3]; x2 = 0.351,-0.352 ± 0.0035 kJ/mol
same,excess molar enthalpy,[3]; x2 = 0.3957,-0.3738 ± 0.0037 kJ/mol
same,excess molar enthalpy,[3]; x2 = 0.4605,-0.3964 ± 0.0038 kJ/mol
same,excess molar enthalpy,[3]; x2 = 0.5022,-0.4031 ± 0.0039 kJ/mol
same,excess molar enthalpy,[3]; x2 = 0.5428,-0.4049 ± 0.0039 kJ/mol
same,excess molar enthalpy,[3]; x2 = 0.6017,-0.3985 ± 0.0039 kJ/mol
same,excess molar enthalpy,[3]; x2 = 0.6583,-0.3875 ± 0.0038 kJ/mol
same,excess molar enthalpy,[3]; x2 = 0.6949,-0.3677 ± 0.0036 kJ/mol
same,excess molar enthalpy,[3]; x2 = 0.748,-0.332 ± 0.0034 kJ/mol
same,excess molar enthalpy,[3]; x2 = 0.7991,-0.288 ± 0.0031 kJ/mol
same,excess molar enthalpy,[3]; x2 = 0.8485,-0.236 ± 0.0028 kJ/mol
same,excess molar enthalpy,[3]; x2 = 0.896,-0.175 ± 0.0024 kJ/mol
same,excess molar enthalpy,[3]; x2 = 0.9569,-0.0829 ± 0.0019 kJ/mol
COCCOC(C)=O [2-methoxyethyl ethanoate],refractive index,[1],1.39988 ± 0.00023
same,mass density,[2],999.76 ± 0.3 kg/m3
COCCOC(C)=O [2-methoxyethyl ethanoate] + CC(Cl)CCl,excess molar enthalpy,[3]; x2 = 0.0464,-0.0588 ± 0.0018 kJ/mol
same,excess molar enthalpy,[3]; x2 = 0.0936,-0.106 ± 0.002 kJ/mol
same,excess molar enthalpy,[3]; x2 = 0.1401,-0.153 ± 0.0023 kJ/mol
same,excess molar enthalpy,[3]; x2 = 0.2084,-0.214 ± 0.0026 kJ/mol
same,excess molar enthalpy,[3]; x2 = 0.253,-0.251 ± 0.0029 kJ/mol
same,excess molar enthalpy,[3]; x2 = 0.2969,-0.282 ± 0.003 kJ/mol
same,excess molar enthalpy,[3]; x2 = 0.3402,-0.313 ± 0.0032 kJ/mol
same,excess molar enthalpy,[3]; x2 = 0.4038,-0.3429 ± 0.0034 kJ/mol
same,excess molar enthalpy,[3]; x2 = 0.4454,-0.3571 ± 0.0035 kJ/mol
same,excess molar enthalpy,[3]; x2 = 0.5066,-0.3705 ± 0.0036 kJ/mol
same,excess molar enthalpy,[3]; x2 = 0.5467,-0.3746 ± 0.0037 kJ/mol
same,excess molar enthalpy,[3]; x2 = 0.6056,-0.3705 ± 0.0036 kJ/mol
same,excess molar enthalpy,[3]; x2 = 0.6442,-0.3615 ± 0.0036 kJ/mol
same,excess molar enthalpy,[3]; x2 = 0.701,-0.339 ± 0.0034 kJ/mol
same,excess molar enthalpy,[3]; x2 = 0.7566,-0.312 ± 0.0032 kJ/mol
same,excess molar enthalpy,[3]; x2 = 0.811,-0.266 ± 0.0029 kJ/mol
same,excess molar enthalpy,[3]; x2 = 0.8466,-0.23 ± 0.0027 kJ/mol
same,excess molar enthalpy,[3]; x2 = 0.8991,-0.168 ± 0.0024 kJ/mol
same,excess molar enthalpy,[3]; x2 = 0.9505,-0.0909 ± 0.0019 kJ/mol
